According to paper PMC7767178 (International Journal of Molecular Sciences, 2020):
Read-outs that look alike come from different tables or passages of the source. Positions of bridges follow the written chain, without caps; N, C: chain ends. Residues, ends and D or L forms follow the SMILES beside them.

What was measured:
A. veronii CL0901 = tested on: A. veronii CL0901
Experimental: (§1) Briefly, the tested strains including Gram-negative bacteria, Gram-positive bacteria, and fungi were cultured to the logarithmic growth phase, diluted to 10^5 CFU/mL, and added into 96-well plates (90 μL/well). Two-fold serial dilutions of peptides or antibiotics dissolved in PBS were added to each well (10 μL/well). […] All experiments were repeated three times.

[1] = tested on: Aeromonas veronii ACCC61732
Experimental: as §1

[2] = tested on: Pseudomonas aeruginosa CICC21630
Experimental: as §1

S. aureus ATCC25923 = tested on: S. aureus ATCC25923
Experimental: as §1

S. aureus ATCC546 = tested on: S. aureus ATCC546
Experimental: as §1

S. hyicus NCTC10350 = tested on: S. hyicus NCTC10350
Experimental: as §1

A. veronii ATCC35624 = type: cell-based
[3] = tested on: Salmonella typhimurium ATCC14028; type: cell-based
A. veronii ACCC61732 [4] = experiment: Outer membrane permeabilization, NPN assay; type: cell-based; conditions: NPN fluorescence, 1×–4× MIC
Experimental: The outer membrane permeabilization abilities of peptides were determined using the fluorescent NPN assay. Mid-log phase A. veronii ACCC61732 was collected by centrifugation, washed twice, and then suspended in N-2-hydroxyethylpiperazine-n-2-ethane sulfonic acid (HEPES) buffer (pH 7.4) to an OD600nm = 0.4. […] Fluorescence intensity was recorded until no further increase with a microplate reader (excitation/emission, 328/438 nm).

A. veronii ACCC61732 [5] = experiment: Inner membrane permeability, PI staining, flow cytometry; type: cell-based
Experimental: To analyze effects of peptides on the inner membrane, A. veronii ACCC61732 cells were cultured to mid-log phase at 37 °C in MHB medium, washed thrice with PBS, and resuspended in the PBS buffer to 1 × 10^8 CFU/mL. […] After fixation with PI, the samples were detected by a fluorescent inverted microscope and FACS Calibur Flow Cytometer (BD, San Jose, CA, USA), respectively. Cell Quest Pro software (BD, San Jose, CA, USA) was used for the data analysis.

A. veronii ACCC61732 [6] = experiment: ATP release, BacTiter-Glo; type: cell-based; conditions: 8×, 16× and 32× MIC, 60 min, 37 °C, luminescence, n = 3
Experimental: The assay was performed for three biological replicates at 37 °C, with luminescence recorded using a Tecan Infinite M1000 Pro plate reader. The fold reduction of ATP was calculated as: Fold reduction ATP = 1 − (Ltreat − Lmedia/Lcontrol − Lmedia), where Ltreat is the luminescence of treated cells, Lmedia is the luminescence of MHB without cells, and Lcontrol is the luminescence of untreated cells. Resultant graphs show mean (n = 3) and SEM for each data point, prepared in Prism 7 [46].

[7] = tested on: A. veronii ACCC61732 mature biofilms; experiment: Eradication of mature biofilms, crystal violet; type: cell-based; conditions: 16× MIC, 24 h on 24 h biofilm
Experimental: A. veronii ACCC61732 cells (1 × 10^8 CFU/mL) were cultured in TSB medium in the 96-well plates at 37 °C for 24 h.

MDR A. veronii ACCC61732 = experiment: Mouse peritonitis model, survival; type: in vivo, ICR mice; conditions: seven days, six mice
Experimental: […]. The mice injected with only bacteria or saline served as the negative and blank control. The mouse survival was recorded daily for seven days.

IL-10 = experiment: Serum cytokine, ELISA, peritonitis model; type: in vivo; conditions: 24 h after treatment, range over mice
Experimental: (§2) Sera and organs (livers, kidneys, spleens, and lungs) were collected from the mice at 24 h post-treatment. The organs were homogenized in sterile PBS to evaluate bacterial translocation by colony counting. The levels of cytokines (TNF-α, IL-1β, IL-6, and IL-10) in sera were detected using the ELISA kits.

A. veronii ACCC61732 [8] = experiment: Organ injury in peritonitis model, histology; type: in vivo, mice; conditions: peptides 5 μmol/kg, CIP 1 μmol/kg
Experimental: Livers, kidneys, spleens, and lungs were removed from mice at 24 h and five days post treatment to evaluate the organ injury. After washing with PBS, the organs were fixed in 4% paraform-aldehyde for 24 h at 4 °C, dehydrated by a graded series of ethanol (75‒95%), and infiltrated with xylene. The organs were then embedded in paraffin wax, sectioned, and stained with hematoxylin and eosin. Finally, the tissue samples were fixed and observed by the light microscope. The CIP-treated mice served as the positive control and the PBS group served as the negative control.

IL-1β = experiment: Serum cytokine, ELISA, peritonitis model; type: in vivo; conditions: 5 μmol/kg, 24 h after treatment, range over mice
Experimental: as §2

IL-6 = experiment: Serum cytokine, ELISA, peritonitis model; type: in vivo; conditions: 5 μmol/kg, 24 h after treatment, range over mice
Experimental: as §2

TNF-α = experiment: Serum cytokine, ELISA, peritonitis model; type: in vivo; conditions: 5 μmol/kg, 24 h after treatment, range over mice
Experimental: as §2

A. veronii = experiment: MIC, range over strains; type: cell-based; conditions: range over the strains of Table 2
Excerpt: (§3) All experiments were repeated three times.

Escherichia coli = experiment: MIC, range over strains; type: cell-based; conditions: range over the strains of Table 2
Excerpt: as §3

Salmonella = conditions: range over the strains of Table 2
[9] = A. veronii CL0901, broth dilution, 37 °C, 16–18 h, three experiments
[10] = Aeromonas veronii ACCC61732 (MDR), broth dilution, 37 °C, 16–18 h, three experiments
[11] = S. aureus ATCC25923, broth dilution, 37 °C, 16–18 h, three experiments
[12] = S. aureus ATCC546, broth dilution, 37 °C, 16–18 h, three experiments
[13] = S. hyicus NCTC10350, broth dilution, 37 °C, 16–18 h, three experiments
[14] = A. veronii ATCC35624, broth dilution, 37 °C, 16–18 h, three experiments
[15] = Salmonella typhimurium ATCC14028, broth dilution, 37 °C, 16–18 h, three experiments
[16] = Pseudomonas aeruginosa CICC21630, broth dilution, 37 °C, 16–18 h, three experiments

| Structure (SMILES) | MIC (A. veronii CL0901) | MIC (A. veronii CL0901; [9]) | MIC [1] | MIC [1, 10] | MIC ([2]; CICC21630) | MIC (S. aureus ATCC25923; ATCC25923) | MIC (S. aureus ATCC25923; [11]) | MIC (S. aureus ATCC546; ATCC546) | MIC (S. aureus ATCC546; [12]) | MIC (S. hyicus NCTC10350; NCTC10350) | MIC (S. hyicus NCTC10350; [13]) | MIC (A. veronii ATCC35624; [14]) | MIC (A. veronii ATCC35624; ATCC35624) | MIC [3, 15] | Permeability (PI-positive cells) (A. veronii ACCC61732 [5]; 1× MIC, 0.5 h) | Permeability (PI-positive cells) (A. veronii ACCC61732 [5]; 1× MIC, 2 h) | Permeability (PI-positive cells) (A. veronii ACCC61732 [5]; 2× MIC, 0.5 h) | Permeability (PI-positive cells) (A. veronii ACCC61732 [5]; 2× MIC, 2 h) | ATP release (A. veronii ACCC61732 [6]) | effect on injury of liver, spleen, kidney and lung (A. veronii ACCC61732 [8]) | further results |
| --- | --- | --- | --- | --- | --- | --- | --- | --- | --- | --- | --- | --- | --- | --- | --- | --- | --- | --- | --- | --- | --- |
| CC(C)[C@@H]1NC(=O)CNC(=O)[C@H](CC(N)=O)NC(=O)[C@H](CCCNC(=N)N)NC(=O)[C@H](Cc2ccc(O)cc2)NC(=O)[C@H](C(C)C)NC(=O)[C@@H](NC(=O)[C@@H](NC(=O)[C@H](CC(N)=O)NC(=O)[C@H](Cc2c[nH]c3ccccc23)NC(=O)[C@H](C)NC(=O)[C@H](Cc2ccccc2)NC(=O)[C@H](CCCN)N=C(N(C)C)N(C)C)C(C)C)CSSC[C@@H](C(=O)N[C@@H](Cc2c[nH]cn2)C(=O)N[C@@H](CCCNC(=N)N)C(=O)N[C@@H](CCCNC(=N)N)C(=O)N[C@@H](C)C(=O)N[C@@H](CC(N)=O)C(N)=O)NC(=O)[C@H](C(C)C)NC(=O)[C@H](CCCNC(=N)N)NC1=O (stereo in doubt) [Guo-N6NH2] | 6.08 µM | 16 µg/mL | 3.04 µM | 8 µg/mL | >24.3 µM | 12.16 µM | 32 µg/mL | 6.08 µM | 16 µg/mL | 24.32 µM | 64 µg/mL | 32 µg/mL | 12.16 µM | 4 µg/mL | 0.63% | 4.96% | 0.55% | 1.91% | 66.23–92.09% |  | MIC, control ([1]; Table S6 control: absence of temperature, acid and alkali, salt and enzyme condition): 8 µg/mL; ability to penetrate the outer membrane (A. veronii ACCC61732 [4]): higher ability to penetrate the outer membrane than N6NH2; Permeability (PI-positive cells) (A. veronii ACCC61732 [5]; 4× MIC, 0.5 h): 0%; Permeability (PI-positive cells) (A. veronii ACCC61732 [5]; 4× MIC, 2 h): 2.16% |
| O=C(O)c1cn(C2CC2)c2cc(N3CCNCC3)c(F)cc2c1=O [CIP, ciprofloxacin, reference compound] |  |  |  |  |  |  |  |  |  |  |  |  |  |  |  |  |  |  | 7.06–47.60% | weak therapeutic effect | inhibition of mature biofilms [7]: 89.87%; survival rate of mice (MDR A. veronii ACCC61732; 1 μmol/kg i.p. 0.5 h after infection): 83.33%; serum level of IL-10 (IL-10; 1 μmol/kg): 10.1 to 16.41 pg/mL |
| CC(C)[C@@H]1NC(=O)CNC(=O)[C@H](CC(N)=O)NC(=O)[C@H](CCCNC(=N)N)NC(=O)[C@H](Cc2ccc(O)cc2)NC(=O)[C@H](C(C)C)NC(=O)[C@@H](NC(=O)[C@@H](NC(=O)[C@H](CC(N)=O)NC(=O)[C@H](Cc2c[nH]c3ccccc23)NC(=O)[C@H](C)NC(=O)[C@H](Cc2ccccc2)NC(=O)CN)C(C)C)CSSC[C@@H](C(=O)N[C@@H](Cc2cnc[nH]2)C(=O)N[C@@H](CCCNC(=N)N)C(=O)N[C@@H](CCCNC(=N)N)C(=O)N[C@@H](C)C(=O)N[C@@H](CC(N)=O)C(N)=O)NC(=O)[C@H](C(C)C)NC(=O)[C@H](CCCNC(=N)N)NC1=O [N6NH2] | 6.46 µM | 16 µg/mL |  | 4 µg/mL | 25.8 µM | 12.9 µM | 32 µg/mL | 6.46 µM | 16 µg/mL | 12.9 µM | 32 µg/mL | 8 µg/mL | 3.23 µM | 4 µg/mL | 0% | 1.39% | 0% | 1.49% | 56.07–90.00% | remarkably alleviated the injury of the liver and spleen | MIC [2, 16]: 64 µg/mL; serum level of IL-10 (IL-10; 5 μmol/kg): 17.02 to 20.87 pg/mL; serum level of IL-1β (IL-1β): 6.06 to 10.82 pg/mL; serum level of IL-6 (IL-6): 47.22 to 108.59 pg/mL; serum level of TNF-α (TNF-α): 40.65 to 55.67 pg/mL |
| CC(C)[C@@H]1NC(=O)CNC(=O)[C@H](CC(N)=O)NC(=O)[C@H](CCCNC(=N)N)NC(=O)[C@H](Cc2ccc(O)cc2)NC(=O)[C@H](C(C)C)NC(=O)[C@@H](NC(=O)[C@@H](NC(=O)[C@H](CC(N)=O)NC(=O)[C@H](Cc2c[nH]c3ccccc23)NC(=O)[C@H](C)NC(=O)[C@H](Cc2ccccc2)NC(=O)CN)C(C)C)CSSC[C@@H](C(=O)N[C@@H](Cc2c[nH]cn2)C(=O)N[C@@H](CCCNC(=N)N)C(=O)N2CCC[C@H]2C(=O)N[C@@H](C)C(=O)N[C@@H](CC(N)=O)C(N)=O)NC(=O)[C@H](C(C)C)NC(=O)[C@H](CCCNC(=N)N)NC1=O [N6PNH2] (H-GFAWNVCVYRNGVRVCHRPAN-NH2; disulfide 7-16 (inferred)) | 26.49 µM | 64 µg/mL | 6.62 µM | 16 µg/mL |  |  | >64 µg/mL |  | >64 µg/mL | >52.98 µM |  | 64 µg/mL | 26.49 µM | 16 µg/mL | 0% | 2.11% | 0.68% | 1.35% | 77.39–90.34% | worst therapeutic effect | MIC [2, 16]: >64 µg/mL; MIC ([3]; ATCC14028): 6.62 µM; MIC values against A. veronii (A. veronii): 6.62 to 26.49 µM; MIC values against Escherichia coli (Escherichia coli): 1.66 to 3.31 µM; Permeability (PI-positive cells) (A. veronii ACCC61732 [5]; 4× MIC, 0.5 h): 0%; Permeability (PI-positive cells) (A. veronii ACCC61732 [5]; 4× MIC, 2 h): 1.23%; inhibition of mature biofilms [7]: 97.16%; survival rate of mice (MDR A. veronii ACCC61732; 5 μmol/kg i.p. 0.5 h after infection): 50%; serum level of IL-10 (IL-10; 5 μmol/kg): no discrepancy of IL-10 levels; MIC values against Salmonella (Salmonella): 0.83 to 13.25 µM |
